In patent US20240285634A1, “COMPOUND AND METHOD FOR TREATING CHEMOTHERAPY-ASSOCIATED GASTROINTESTINAL SIDE EFFECTS” (ONQUALITY PHARMACEUTICALS CHINA LTD., priority 2021, published 2024):

Test system: Chemotherapeutic agent-caused diarrhea models of Balb/c mice
Test: Relieving effect on diarrhea caused by a chemotherapeutic agent (Examples 1-201)
Assay type: in vivo
Text: Construction of mouse animal models: Chemotherapeutic agent-caused diarrhea models of Balb/c mice were constructed according to the administration mode and frequency of the chemotherapeutic agent as shown in Table 3. After administration for several days, mice developed different extents of diarrhea symptoms (as shown in FIG. 1), which were similar to the conditions in human. Thus, chemotherapeutic agent-caused diarrhea models of mice are very good models to mimic diarrhea in human caused by the chemotherapeutic agent.
Balb/c mice were fed for 1 week, and then divided into groups. The experiment was divided into a control group, a chemotherapeutic agent group, and a group of the compound as shown in Formula I, each of which comprised 10 mice, to perform the administration experiment, for which the administration dosage, mode, time and frequency were shown in Table 3. The control group: being injected or intragastrically administered with the same solvent as that used in the group of the compound as shown in Formula I (the injection mode and time were shown in Table 3), and then being injected or intragastrically administered with the same solvent as that used in the chemotherapeutic agent group (the administration mode was shown in Table 3); the chemotherapeutic agent group: being injected or intragastrically administered with the same solvent as that used in the group of the compound as shown in Formula I (the administration mode and time were shown in Table 3), and then being injected or intragastrically administered with the chemotherapeutic agent (the type, administration mode and dosage were shown in Table 3); the group of the compound as shown in Formula I: being injected or intragastrically administered with the compound as shown in Formula I (the administration mode and time were shown in Table 3), and then being administered with the chemotherapeutic agent (the administration mode and dosage were shown in Table 3).
The scoring of diarrhea can refer to the method of Akinobu Kurita (Cancer Chemother Pharmacol 2000; 46:211-20.), Grade 0: normal feces; Grade 1: mild diarrhea, the stools is slightly wet and soft; Grade 2: moderate diarrhea, loose stools and mild perianal contamination; Grade 3: severe diarrhea, watery stools and accompanied by severe perianal staining (see FIG. 1). It is regarded as effective remission when the diarrhea grading of mice in the group of the compound as shown in Formula I is reduced compared with the average diarrhea grading of mice in the chemotherapeutic agent group.
The diarrhea grading of mice was observed and recorded every day. At the end of the experiment, the number of mice in the group of the compound as shown in Formula I whose diarrhea grading was lower than that of mice in the chemotherapeutic agent group was recorded. Table 3 lists various animal experiment combinations of chemotherapeutic agents and the compound as shown in Formula I, as well as the corresponding experimental results. (Relative remission rate %=the number of mice in the group of the compound as shown in Formula I whose diarrhea has been effectively relieved/the total number of mice in the group of the compound as shown in Formula I*100%. The establishment rate of diarrhea model in the chemotherapeutic agent group was 50%-70%, that is, about 5-7 of 10 mice developed diarrhea during the experiment, and there were cases of individual mice death or not developing diarrhea.)

Structure (SMILES): CN1CCN(c2ccc(Nc3ncc4cc5n(c4n3)C3(CCCCC3)CNC5=O)nc2)CC1 [Compound I, Trilaciclib]
- Relative remission rate (Ex 123, Fluorouracil 100 + irinotecan 200 mg/kg intravenous single, compound 100 mg/kg intravenous single 8 h before, cycle 10 days): 50%
- Relative remission rate (Ex 124, Fluorouracil 100 + irinotecan 200 mg/kg intravenous single, compound 100 mg/kg intravenous single 12 h before, cycle 10 days): 50%
- Relative remission rate (Ex 125, Fluorouracil 100 + irinotecan 200 mg/kg intravenous single, compound 100 mg/kg intravenous single 24 h before, cycle 10 days): 30%
- Relative remission rate (Ex 126, Fluorouracil 100 + irinotecan 200 mg/kg intravenous single, compound 100 mg/kg intravenous single 48 h before, cycle 10 days): 0%
- Relative remission rate (Ex 127, Fluorouracil 100 + irinotecan 200 mg/kg intraperitoneal single, compound 100 mg/kg intraperitoneal single 1 h before, cycle 8 days): 40%
- Relative remission rate (Ex 128, Fluorouracil 100 + irinotecan 200 mg/kg intraperitoneal single, compound 100 mg/kg intraperitoneal single 12 h before, cycle 8 days): 30%
- Relative remission rate (Ex 129, Fluorouracil 100 + irinotecan 200 mg/kg intraperitoneal single, compound 150 mg/kg oral single 0.5 h before, cycle 8 days): 40%
- Relative remission rate (Ex 130, Fluorouracil 100 + irinotecan 200 mg/kg intraperitoneal single, compound 150 mg/kg oral single 12 h before, cycle 8 days): 40%
- Relative remission rate (Ex 131, Fluorouracil 100 + irinotecan 200 mg/kg intraperitoneal single, compound 150 mg/kg oral single 24 h before, cycle 8 days): 30%
- Relative remission rate (Ex 138, Fluorouracil 50 + oxaliplatin 5 + irinotecan 50 mg/kg intraperitoneal single, compound 100 mg/kg intraperitoneal single 0.5 h before, cycle 10 days): 50%
- Relative remission rate (Ex 139, Fluorouracil 50 + oxaliplatin 5 + irinotecan 50 mg/kg intraperitoneal single, compound 100 mg/kg intraperitoneal single 4 h before, cycle 10 days): 40%
- Relative remission rate (Ex 140, Fluorouracil 50 + oxaliplatin 5 + irinotecan 50 mg/kg intraperitoneal single, compound 100 mg/kg intraperitoneal single 8 h before, cycle 10 days): 40%
- Relative remission rate (Ex 141, Fluorouracil 50 + oxaliplatin 5 + irinotecan 50 mg/kg intraperitoneal single, compound 100 mg/kg intraperitoneal single 12 h before, cycle 10 days): 50%
- Relative remission rate (Ex 142, Fluorouracil 50 + oxaliplatin 5 + irinotecan 50 mg/kg intraperitoneal single, compound 100 mg/kg intraperitoneal single 24 h before, cycle 10 days): 50%
- Relative remission rate (Ex 143, Fluorouracil 50 + oxaliplatin 5 + irinotecan 50 mg/kg intraperitoneal single, compound 100 mg/kg intraperitoneal single 48 h before, cycle 10 days): 0%
- Relative remission rate (Ex 144, Fluorouracil 50 + oxaliplatin 5 + irinotecan 50 + tetrahydrofolic acid 90 mg/kg intravenous single, compound 100 mg/kg intravenous single 0.5 h before, cycle 10 days): 50%
- Relative remission rate (Ex 145, Fluorouracil 50 + oxaliplatin 5 + irinotecan 50 + tetrahydrofolic acid 90 mg/kg intravenous single, compound 100 mg/kg intravenous single 1 h before, cycle 10 days): 40%
- Relative remission rate (Ex 146, Fluorouracil 50 + oxaliplatin 5 + irinotecan 50 + tetrahydrofolic acid 90 mg/kg intravenous single, compound 100 mg/kg intravenous single 2 h before, cycle 10 days): 40%
- Relative remission rate (Ex 147, Fluorouracil 50 + oxaliplatin 5 + irinotecan 50 + tetrahydrofolic acid 90 mg/kg intravenous single, compound 100 mg/kg intravenous single 3 h before, cycle 10 days): 30%
- Relative remission rate (Ex 148, Fluorouracil 50 + oxaliplatin 5 + irinotecan 50 + tetrahydrofolic acid 90 mg/kg intravenous single, compound 100 mg/kg intravenous single 4 h before, cycle 10 days): 40%
- Relative remission rate (Ex 149, Fluorouracil 50 + oxaliplatin 5 + irinotecan 50 + tetrahydrofolic acid 90 mg/kg intravenous single, compound 100 mg/kg intravenous single 6 h before, cycle 10 days): 40%
- Relative remission rate (Ex 150, Fluorouracil 50 + oxaliplatin 5 + irinotecan 50 + tetrahydrofolic acid 90 mg/kg intravenous single, compound 100 mg/kg intravenous single 8 h before, cycle 10 days): 30%
- Relative remission rate (Ex 151, Fluorouracil 50 + oxaliplatin 5 + irinotecan 50 + tetrahydrofolic acid 90 mg/kg intravenous single, compound 100 mg/kg intravenous single 10 h before, cycle 10 days): 30%
- Relative remission rate (Ex 152, Fluorouracil 50 + oxaliplatin 5 + irinotecan 50 + tetrahydrofolic acid 90 mg/kg intravenous single, compound 100 mg/kg intravenous single 12 h before, cycle 10 days): 30%
- Relative remission rate (Ex 153, Fluorouracil 50 + oxaliplatin 5 + irinotecan 50 + tetrahydrofolic acid 90 mg/kg intravenous single, compound 100 mg/kg intravenous single 14 h before, cycle 10 days): 50%
- Relative remission rate (Ex 154, Fluorouracil 50 + oxaliplatin 5 + irinotecan 50 + tetrahydrofolic acid 90 mg/kg intravenous single, compound 100 mg/kg intravenous single 16 h before, cycle 10 days): 50%
- Relative remission rate (Ex 155, Fluorouracil 50 + oxaliplatin 5 + irinotecan 50 + tetrahydrofolic acid 90 mg/kg intravenous single, compound 100 mg/kg intravenous single 18 h before, cycle 10 days): 60%
- Relative remission rate (Ex 156, Fluorouracil 50 + oxaliplatin 5 + irinotecan 50 + tetrahydrofolic acid 90 mg/kg intravenous single, compound 100 mg/kg intravenous single 20 h before, cycle 10 days): 60%
- Relative remission rate (Ex 157, Fluorouracil 50 + oxaliplatin 5 + irinotecan 50 + tetrahydrofolic acid 90 mg/kg intravenous single, compound 100 mg/kg intravenous single 24 h before, cycle 10 days): 30%
- Relative remission rate (Ex 158, Fluorouracil 50 + oxaliplatin 5 + irinotecan 50 + tetrahydrofolic acid 90 mg/kg intravenous single, compound 100 mg/kg intravenous single 48 h before, cycle 10 days): 0%
- Relative remission rate (Ex 159, Fluorouracil 50 + oxaliplatin 5 + irinotecan 50 + tetrahydrofolic acid 90 mg/kg intraperitoneal single, compound 100 mg/kg intraperitoneal single 0.5 h before, cycle 7 days): 50%
- Relative remission rate (Ex 160, Fluorouracil 50 + oxaliplatin 5 + irinotecan 50 + tetrahydrofolic acid 90 mg/kg intraperitoneal single, compound 100 mg/kg intraperitoneal single 24 h before, cycle 7 days): 20%
- Relative remission rate (Ex 163, Fluorouracil 50 + oxaliplatin 5 + irinotecan 50 + tetrahydrofolic acid 90 mg/kg intraperitoneal single, compound 150 mg/kg oral single 0.5 h before, cycle 7 days): 40%
- Relative remission rate (Ex 164, Fluorouracil 50 + oxaliplatin 5 + irinotecan 50 + tetrahydrofolic acid 90 mg/kg intraperitoneal single, compound 150 mg/kg oral single 4 h before, cycle 7 days): 60%
- Relative remission rate (Ex 165, Fluorouracil 50 + oxaliplatin 5 + irinotecan 50 + tetrahydrofolic acid 90 mg/kg intraperitoneal single, compound 150 mg/kg oral single 8 h before, cycle 7 days): 80%
- Relative remission rate (Ex 166, Fluorouracil 50 + oxaliplatin 5 + irinotecan 50 + tetrahydrofolic acid 90 mg/kg intraperitoneal single, compound 150 mg/kg oral single 12 h before, cycle 7 days): 40%
- Relative remission rate (Ex 167, Fluorouracil 50 + oxaliplatin 5 + irinotecan 50 + tetrahydrofolic acid 90 mg/kg intraperitoneal single, compound 150 mg/kg oral single 24 h before, cycle 7 days): 20%
- Relative remission rate (Ex 168, Fluorouracil 50 + oxaliplatin 5 + irinotecan 50 + tetrahydrofolic acid 90 mg/kg intraperitoneal single, compound 150 mg/kg oral single 0.5 h before, cycle 7 days): 40%
- Relative remission rate (Ex 169, Fluorouracil 50 + oxaliplatin 5 + irinotecan 50 + tetrahydrofolic acid 90 mg/kg intraperitoneal single, compound 150 mg/kg oral single 4 h before, cycle 7 days): 60%
- Relative remission rate (Ex 170, Fluorouracil 50 + oxaliplatin 5 + irinotecan 50 + tetrahydrofolic acid 90 mg/kg intraperitoneal single, compound 150 mg/kg oral single 8 h before, cycle 7 days): 80%
- Relative remission rate (Ex 171, Fluorouracil 50 + oxaliplatin 5 + irinotecan 50 + tetrahydrofolic acid 90 mg/kg intraperitoneal single, compound 150 mg/kg oral single 12 h before, cycle 7 days): 40%
- Relative remission rate (Ex 172, Fluorouracil 50 + oxaliplatin 5 + irinotecan 50 + tetrahydrofolic acid 90 mg/kg intraperitoneal single, compound 150 mg/kg oral single 24 h before, cycle 7 days): 20%
- Relative remission rate (Ex 190, Fluorouracil 100 + oxaliplatin 10 + irinotecan 200 + tetrahydrofolic acid 100 mg/kg oral single, compound 100 mg/kg subcutaneous single 1 h before, cycle 7 days): 60%
- Relative remission rate (Ex 191, Fluorouracil 100 + oxaliplatin 10 + irinotecan 200 + tetrahydrofolic acid 100 mg/kg oral single, compound 100 mg/kg subcutaneous single 2 h before, cycle 7 days): 50%
- Relative remission rate (Ex 192, Fluorouracil 100 + oxaliplatin 10 + irinotecan 200 + tetrahydrofolic acid 100 mg/kg oral single, compound 100 mg/kg subcutaneous single 4 h before, cycle 7 days): 30%
- Relative remission rate (Ex 193, Fluorouracil 100 + oxaliplatin 10 + irinotecan 200 + tetrahydrofolic acid 100 mg/kg oral single, compound 100 mg/kg subcutaneous single 6 h before, cycle 7 days): 30%
- Relative remission rate (Ex 196, Gemcitabine (GEM) 120 mg/kg intraperitoneal single, compound 100 mg/kg oral single 12 h before, cycle 8 days): 50%
- diarrhea gradings compared with the chemotherapeutic agent group (administered before the chemotherapeutic agent, Table 3 and FIG. 2): relieved to different degrees
